Data on 2 compounds can be found in ChEMBL document CHEMBL5096153, “Spirocyclic Scaffolds in Medicinal Chemistry” (J Med Chem, 2021).

The subject of the assay is Influenza A virus. The assay is described as follows: Antiviral activity against drug-resistant Influenza A virus A/M2-V27A mutant assessed as viral growth inhibition. Format: functional, organism-based.

In the case of `NC1CCC2(CCCC2)CC1`, the IC50 (commonly the concentration that inhibits the measured activity by half) is 319 µM.
The figure for `NC1CC[Si]2(CCCC2)CC1` is 96.3 µM.
